# From patent publication US20240182449A1, “CRYSTALLINE FORMS OF AN MK2 INHIBITOR” (XinThera, Inc., priority 2022, published 2024)
# “And” between values parts separate entries of the source, which are not always exact repeats. Identical values can stand only once. “Also recorded” adds a separate entry of the source.
# Assays:
# [1] = Mechanical stability (manual grinding, XRPD); format: physicochemical
# Protocol: Appropriate amount of Form X was manually ground by pestle and mortar for about 2 minutes and 5 minutes, and then analyzed by XRPD.
# [2] = Solid-state stability (HPLC purity and XRPD); format: physicochemical; settings: for solid-state stability (form change, purity): 7 days
# Protocol: Solid-state stability of Form X was conducted at 60° C. (capped) and 40° C./75% RH (open) for 7 days. The stability sample was dissolved in diluent to prepare solution at ˜1 mg/mL for HPLC purity analysis. Solid samples were analyzed by XRPD to check the crystal form.
# [3] = pH solubility profile; format: physicochemical
# Protocol: Different pH buffers (pH 1.0, 3.0, 5.0, 6.8 and 9.0) were prepared by method in Table 20. Then 10 mg of Form X was added into 2 mL of different buffers (pH=1.0, 3.0, 5.0, 6.8 and 9.0) to make suspensions. The suspensions were kept shaking with a speed of 1000 rpm at 25° C. for 4 and 24 hours. At each point, the suspensions were centrifuged, and the supernatant was inspected by HPLC/pH, and the wet cakes were analyzed by XRPD. Duplicate samples were prepared.
# [4] = Solubility in bio-relevant media (SGF, FaSSIF, FeSSIF) and water; format: physicochemical; settings: for Solubility: 37° C.
# Protocol: The solubility of Form X was measured in bio-relevant media (SGF, FaSSIF and FeSSIF) and water at 37° C. with 800 rpm for up to 24 hours. About 15 mg of Form X was weighed into sample vials and then 3 mL of three bio-relevant media and water were added to make suspensions, respectively. At 0.5, 2 and 24 hours, about 1 mL of each suspension was filtered, the filtrates were analyzed by HPLC and pH, and the filter cakes were analyzed by XRPD. Duplicate samples were prepared. […] A little higher solubility in FeSSIF was possibly due to the effect of bile salt.
# [5] = Solubility estimation at RT by visual observation in selected solvent systems
# Protocol: The solubility of compound 1 Form I and Form X was estimated at RT by visual observation in selected solvent systems. Approximately 5 mg solids were weighed into 8 mL glass vial, and then solvent was added stepwise until solids were dissolved completely or a total of solvent volume reached 5 mL.
# [6] = Hygroscopicity by DVS; format: physicochemical
# Protocol: DVS was performed on Form X, to evaluate its hygroscopicity and physical stability under different humidity.
# Moisture sorption/desorption data were collected on a DVS instrument. Appropriate amount of sample was placed into a tared sample chamber and automatically weighed. The sample was analyzed with the setting parameters in the table below.
# [7] = Slurry conversion of Form I and Form X in solvents (XRPD result); format: physicochemical; settings: for XRPD Result-Day 3: slurry at 80° C.
# Protocol: Appropriate amount of Form I was added into different solvents to make suspensions, which were kept stirring at RT and 50° C. for 3 and 7 days, and at 80° C. for 3 days. Solid samples were collected by centrifugation and analyzed by XRPD. Forms I-IV, VII and VIII were obtained by slurry experiments of Form I.
# Appropriate amount of Form X was added into different solvents to make suspensions, which were kept stirring at RT and 50° C. for 3 and 7 days, and at 80° C. for 3 days. Solid samples were collected by centrifugation and analyzed by XRPD.
# [8] = Slurry competition experiments (thermodynamic stability relationship); format: physicochemical; settings: RT, also in pure water
# Protocol: Slurry competition experiments were carried out between anhydrous and hydrates, to establish stability relationships. Appropriate amount of Form I was suspended in different solvents for pre-saturation at RT. Then the filtrate was added into equal amount of different forms, and the mixture was kept stirring at RT for certain time before XRPD tests.
# [9] = slurry at 50° C., Acetone/water (1/3)
# [10] = slurry at 50° C., MeOH/Water (1/4)
# [11] = slurry at RT, Acetone/water (1/3)
smiles,measurement,setting,value
[2H]C([2H])(Oc1cc(C)n(-c2c(C)cnc(-n3ccc(C(C)(C)O)n3)c2F)c(=O)c1Cl)c1ncc(F)cc1F [Form X],Crystallinity after manual grinding,[1]; manual grinding,with slight crystallinity decrease after
same,crystal form after grinding,[1]; manually ground about 2 and 5 minutes,remained unchanged with slight crystallinity decrease
same,Stability (physical),"[2]; 40° C./75% RH (open), 1 week",Physically stable at 40° C./75% RH (open)
same,XRPD Result,"[2]; 40° C./75% RH (open), 1 week",Form X
same,Purity (area %),"[2]; 40° C./75% RH (open), 1 week, duplicate samples",99.94 area % and 99.93 area %
same,"solid-state stability (form change, purity)",[2]; 40° C./75% RH (open),physically and chemically stable; also recorded: No form change or purity decrease
same,XRPD Result,"[2]; 60° C. (capped), 1 week",Form X
same,Purity (area %),"[2]; 60° C. (capped), 1 week, duplicate samples",99.93 area % and 99.94 area %
same,"solid-state stability (form change, purity)",[2]; 60° C. (capped),physically and chemically stable; also recorded: No form change or purity decrease
same,Stability (physical),"[2]; 60° C., 1 week",Physically stable at 40° C./75% RH (open)
same,Purity (area %),[2]; Initial,99.94 area %
same,XRPD Result,[2]; Initial,Form X
same,XRPD of wet cake after pH solubility test,"[3]; 4/24 h, all pH buffers",Unchanged
same,crystal form after pH solubility test,[3]; XRPD of wet cake,remained unchanged
same,"Solubility (1T/2T, mg/mL)","[3]; pH 1.0, 25° C., 4 h",0.074 mg/mL
same,"Solubility (1T/2T, mg/mL)","[3]; pH 1.0, 25° C., 24 h",0.075 mg/mL
same,pH-dependence of solubility,"[3]; pH 1.0-9.0 buffers, 25° C.",no pH-dependence
same,"Solubility (1T/2T, mg/mL)","[3]; pH 3.0 buffer, 25° C., 4 h",0.060 mg/mL
same,"Solubility (1T/2T, mg/mL)","[3]; pH 3.0 buffer, 25° C., 24 h",0.073 mg/mL
same,"Solubility (1T/2T, mg/mL)","[3]; pH 5.0 buffer, 25° C., 4 h",0.061 mg/mL
same,"Solubility (1T/2T, mg/mL)","[3]; pH 5.0 buffer, 25° C., 24 h",0.060 mg/mL
same,"Solubility (1T/2T, mg/mL)","[3]; pH 6.8 buffer, 25° C., 4 h",0.060 mg/mL
same,"Solubility (1T/2T, mg/mL)","[3]; pH 6.8 buffer, 25° C., 24 h",0.060 mg/mL
same,"Solubility (1T/2T, mg/mL)","[3]; pH 9.0 buffer, 25° C., 4 h",0.060 mg/mL
same,"Solubility (1T/2T, mg/mL)","[3]; pH 9.0 buffer, 25° C., 24 h",0.062 mg/mL
same,XRPD of filter cake after solubility test,"[4]; 0.5/2/24 h, all media (SGF, FaSSIF, FeSSIF, water)",^a Form X remained unchanged during solubility test in all media
same,Solubility,"[4]; FaSSIF, 0.5 h",69 µg/mL
same,Solubility,"[4]; FaSSIF, 2 h",70 µg/mL
same,Solubility,"[4]; FaSSIF, 24 h",74 µg/mL
same,Solubility,"[4]; FeSSIF, 0.5 h",97 µg/mL
same,Solubility,"[4]; FeSSIF, 2 h",97 µg/mL
same,Solubility,"[4]; FeSSIF, 24 h",124 µg/mL
same,Solubility,"[4]; SGF, 0.5 h",74 µg/mL
same,Solubility,"[4]; SGF, 2 h",70 µg/mL
same,Solubility,"[4]; SGF, 24 h",66 µg/mL
same,Solubility,"[4]; Water, 0.5 h",74 µg/mL
same,Solubility,"[4]; Water, 2 h",74 µg/mL
same,Solubility,"[4]; Water, 24 h",70 µg/mL
same,crystal form after solubility test,"[4]; all media, XRPD of filter cake",remained unchanged
same,estimated solubility compared with Form I,[5],decreased solubility in some solvents
same,XRPD after DVS,[6],No change
same,hygroscopicity,[6]; DVS,non-hygroscopic
same,water uptake,"[6]; DVS, 80% RH",0.11%
same,water uptake,"[6]; DVS, 90% RH",0.16%
same,crystal form after DVS test,[6]; after DVS test,remained unchanged
same,DVS Wt. Gain %,[6]; at 80% RH,0.11%
same,DVS Wt. Gain %,[6]; at 90% RH,0.16%
same,Hygroscopicity (DVS),[6]; classification in words,non-hygroscopic
same,XRPD Result Day 3,[7]; [9],Form X
same,XRPD Result Day 7,[7]; [9],Form X
same,XRPD Result Day 3,"[7]; slurry at 50° C., IPA",Form X
same,XRPD Result Day 7,"[7]; slurry at 50° C., IPA",Form X
same,XRPD Result Day 3,"[7]; slurry at 50° C., IPE",Form X
same,XRPD Result Day 7,"[7]; slurry at 50° C., IPE",Form X
same,XRPD Result Day 3,"[7]; slurry at 50° C., MTBE",Form X
same,XRPD Result Day 7,"[7]; slurry at 50° C., MTBE",Form III
same,XRPD Result Day 3,[7]; [10],Form X
same,XRPD Result Day 7,[7]; [10],Form X
same,XRPD Result Day 3,"[7]; slurry at 50° C., Toluene",Form X
same,XRPD Result Day 7,"[7]; slurry at 50° C., Toluene",Form X
same,XRPD Result Day 3,"[7]; slurry at 50° C., Water",Form X
same,XRPD Result Day 7,"[7]; slurry at 50° C., Water",Form X
same,XRPD Result-Day 3,[7]; CYH,Form X
same,XRPD Result-Day 3,[7]; Heptane,Form X
same,XRPD Result-Day 3,[7]; IPA/Water (1/2),Clear
same,XRPD Result-Day 3,[7]; IPA/Water (1/3),Form X
same,XRPD Result-Day 3,[7]; IPAc/Heptane (1/2),Form X
same,XRPD Result-Day 3,[7]; MeCYH,Form X
same,XRPD Result-Day 3,[7]; Water,Form X
same,XRPD Result Day 3,[7]; [11],Form X
same,XRPD Result Day 7,[7]; [11],Form X
same,XRPD Result Day 3,"[7]; slurry at RT, EtOH",Clear
same,XRPD Result Day 7,"[7]; slurry at RT, EtOH",Clear
same,XRPD Result Day 3,"[7]; slurry at RT, IPA",Form X
same,XRPD Result Day 7,"[7]; slurry at RT, IPA",Form X
same,XRPD Result Day 3,"[7]; slurry at RT, IPAc",Form X
same,XRPD Result Day 7,"[7]; slurry at RT, IPAc",Form X
same,XRPD Result Day 3,"[7]; slurry at RT, IPE",Form X
same,XRPD Result Day 7,"[7]; slurry at RT, IPE",Form X
same,XRPD Result Day 3,"[7]; slurry at RT, MIBK",Form X
same,XRPD Result Day 7,"[7]; slurry at RT, MIBK",Form X
same,XRPD Result Day 3,"[7]; slurry at RT, MTBE",Form III
same,XRPD Result Day 7,"[7]; slurry at RT, MTBE",Form III
same,XRPD Result Day 3,"[7]; slurry at RT, MeOH/water (1/4)",Form X
same,XRPD Result Day 7,"[7]; slurry at RT, MeOH/water (1/4)",Form X
same,XRPD Result Day 3,"[7]; slurry at RT, Toluene",Form X
same,XRPD Result Day 7,"[7]; slurry at RT, Toluene",Form X
same,XRPD Result Day 3,"[7]; slurry at RT, Water",Form X
same,XRPD Result Day 7,"[7]; slurry at RT, Water",Form X
same,thermodynamic stability in slurry competition of anhydrous forms and hydrates,[8],thermodynamically more stable even in pure water at room temperature; also recorded: thermodynamically stable even in pure water
